Results taken from ChEMBL document CHEMBL3272193, “New synthetic calcium selective ionophores. Design, synthesis, and transport properties” (J Med Chem, 1978).

Tests used:
Assay type in all cases: physicochemical; call rule not given here
[1] = Induction of calcium transport in chloroform layer up to 7 to 11 hrs in presence of picrate
[2] = Induction of calcium transport in chloroform layer up to 7 to 11 hrs in absence of picrate
[3] = Induction of sodium transport in chloroform layer up to 7 to 11 hrs
[4] = Induction of magnesium transport in chloroform layer up to 3 hrs

| SMILES | Activity [1] | Activity [2] | Activity [3] | Activity [4] |
| --- | --- | --- | --- | --- |
| COc1ccccc1CC(C)N(C)C(=O)COCCOCC(=O)N(C)C(C)Cc1ccccc1OC (mixture of isomers) | Active | Active | Not Active | Active |
| O=C(O)COCC(=O)N1CCC(C(c2ccccc2)c2ccccc2)CC1 | Active | Active | Not Active | Active |
| O=C(O)COCC(=O)NCCc1ccccc1 |  |  | Not Active |  |
| O=C(COCCOCC(=O)NCCc1c[nH]c2ccccc12)NCCc1c[nH]c2ccccc12 |  |  | Not Active |  |
| O=C(COCCOCC(=O)NCCc1ccccc1)NCCc1ccccc1 |  |  | Not Active |  |
| O=C(COCCOCC(=O)NC12CC3CC(CC(C3)C1)C2)NC12CC3CC(CC(C3)C1)C2 |  |  | Not Active |  |
| O=C(COCCOCC(=O)N1c2ccccc2C=Cc2ccccc21)N1c2ccccc2C=Cc2ccccc21 | Active | Active | Not Active |  |

Continued, values first:

| Activity [1] | Activity [2] | Activity [3] | Activity [4] | SMILES |
| --- | --- | --- | --- | --- |
| Active | Active | Not Active | Active | CC(CC1CCCCC1)N(C)C(=O)COCC(=O)O (centres undefined) |
| Active | Active | Not Active |  | CC(CC1CCCCC1)N(C)C(=O)COCCOCC(=O)N(C)C(C)CC1CCCCC1 (mixture of isomers) |
|  |  | Not Active |  | CN(CCc1ccccc1)C(=O)COCC(=O)O |
|  |  | Not Active |  | O=C(O)COCC(=O)NC12CC3CC(CC(C3)C1)C2 |
